Experimental data reported in patent publication US20260209242A1, “CAMPTOTHECIN DERIVATIVE, PHARMACEUTICAL COMPOSITION, AND PREPARATION METHOD AND USE THEREFOR” (priority 2022, published 2026).
Like-named read-outs stand apart in the source and are kept apart here.

How the values were obtained:
Type in all cases: cell-based
SK-BR-3 = assay: Inhibition of proliferation of cells SK-BR-3 (CelltiterGlo, 72 h); settings: Homo sapiens
Protocol: (§1) • (1) Cell plating: first, tumor cells SK-BR-3 were cultured using a corresponding culture medium, trypsinized, centrifuged, resuspended for counting, adjusted to an appropriate concentration, and then plated on a 384-well plate. • (2) Co-incubation of the compounds and tumor cells: after the cells adhered to the wall, 100 nL of a diluted bioactive substance (test compound) was added to the cell culture plate using ECHO, the final concentration of DMSO in wells of the cell plate was 0.33%, and the incubation was performed in an incubator at 37° C. with 5% CO2 for 72 h. • (3) After the incubation was complete, 30 μL of a CTG reagent (CelltiterGlo kit) was added to each well. The culture was oscillated on a fast oscillator for 2 min, centrifuged at 1,000 rpm for 1 min, and kept away from light at room temperature for 30 min. The chemiluminescence signal value was read using an Envision instrument. • (4) Cell viability detection: IC50 was calculated using GraphPad Prism 8 software, and the IC50 of the compounds was obtained using the following nonlinear fitting formula (see Table 1):
[formula] • Y: inhibition rate; X: log value of compound concentration-,
(§2) [formula] • high-reading control wells: cells with addition of 100 nL DMSO; and • low-reading control wells: cell-free wells.

MDA-MB-468 = assay: Inhibition of proliferation of cells MDA-MB-468 (CelltiterGlo, 72 h)
Protocol: as §1, with “MDA-MB-468” for “SK-BR-3”, “[…]” for “5%”, “2):” for “1):”
[formula] • Y: inhibition rate: X: log value of compound concentration;
as §2

NCI-N87 = assay: Inhibition of proliferation of cells NCI-N87 (CelltiterGlo, 72 h)
Protocol: as §1, with “NCI-N87” for “SK-BR-3”, “[…]” for “5%”, “3):” for “1):”
[formula] • Y: inhibition rate, X: log value of compound concentration;
as §2

[1] = SK-BR-3, 72 h, read-out: IC50 (nM), antiproliferative activity on SK-BR-3, SK-BR-3 cells, 72 h, CTG
[2] = Homo sapiens, MDA-MB-468, 72 h, read-out: IC50 (nM), antiproliferative activity on MDA-MB-468, MDA-MB-468 cells, 72 h, CTG
[3] = Homo sapiens, NCI-N87, 72 h, read-out: IC50 (nM), antiproliferative activity on cells NCI-N87, NCI-N87 cells, 72 h, CTG
[4] = MDA-MB-468 cells, 72 h, CTG, read-out: IC50 (nM), antiproliferative activity on MDA-MB-468
[5] = NCI-N87 cells, 72 h, CTG, read-out: IC50 (nM), antiproliferative activity on cells NCI-N87

Row | Molecule | IC50 (SK-BR-3; [1]) | IC50 (NCI-N87; [3]) | IC50 (MDA-MB-468; [4]) | IC50 (NCI-N87; [5]) | other results
1 | CC[C@@]1(O)C(=O)OCc2c1cc1n(c2=O)Cc2c-1nc1cc(F)c(C)c3c1c2[C@@H](NC(=O)[C@H]1C[C@@H](O)C1)CCC3 [Compound 10, (1S,3R)—N-((1S,10S)-10-ethyl-6-fluoro-10-hydroxy-5-methyl-11,14-dioxo-1,2,3,4,10,11,14,16-octahydro-13H-cyclohepta[de]pyrano[3′,4′:6,7]indolizino[1,2-b]quinolin-1-yl)-3-hydroxycyclobutane-1-carboxamide] | 10 nM | 23 nM | – | – | IC50 (MDA-MB-468; [2]): 13 nM
2 | CC[C@@]1(O)C(=O)OCc2c1cc1n(c2=O)Cc2c-1nc1cc(F)c(C)c3c1c2[C@@H](NC(=O)[C@H](O)C1CC1)CCC3 [Compound 11-1, (R)-2-cyclopropyl-N-((1S,10S)-10-ethyl-6-fluoro-10-hydroxy-5-methyl-11,14-dioxo-1,2,3,4,10,11,14,16-octahydro-13H-cyclohepta[de]pyrano[3′,4′:6,7]indolizino[1,2-b]quinolin-1-yl)-2-hydroxyacetamide] | – | – | – | – | IC50 (SK-BR-3; SK-BR-3 cells, 72 h, CTG, read-out: IC50 (nM), antiproliferative activity on SK-BR-3): 2.2 nM; IC50 (MDA-MB-468; Homo sapiens, MDA-MB-468 cells, 72 h, CTG, read-out: IC50 (nM), antiproliferative activity on MDA-MB-468): 3.9 nM; IC50 (NCI-N87; Homo sapiens, NCI-N87 cells, 72 h, CTG, read-out: IC50 (nM), antiproliferative activity on cells NCI-N87): 2.5 nM
3 | C=Cc1c(F)cc2nc3c(c4c2c1CC[C@@H]4NC(=O)[C@H]1C[C@@H](O)C1)Cn1c-3cc2c(c1=O)COC(=O)[C@]2(O)CC [Compound 12, (1S,3R)—N-((1S,9S)-9-ethyl-5-fluoro-9-hydroxy-10,13-dioxo-4-ethenyl-2,3,9,10,13,15-hexahydro-1H,12H-benzo[d]pyrano[3′,4′:6,7]indolizino[1,2-b]quinolin-1-yl)-3-hydroxycyclobutane-1-carboxamide] | 5.7 nM | 20 nM | – | – | IC50 (MDA-MB-468; [2]): 9.3 nM
4 | CC[C@@]1(O)C(=O)OCc2c1cc1n(c2=O)Cc2c-1nc1cc(F)c(C3CC3)c3c1c2C(NC(=O)[C@H]1C[C@@H](O)C1)CC3 (stereo partly drawn) [Compound 18-1, (1S,3S)—N-((1R,9S)-4-cyclopropyl-9-ethyl-5-fluoro-9-hydroxy-10,13-dioxo-2,3,9,10,13,15-hexahydro-1H,12H-benzo[d]pyrano[3′,4′:6,7]indolizino[1,2-b]quinolin-1-yl)-3-hydroxycyclobutane-1-carboxamide] | 13.8 nM | 11.2 nM | – | – | –
5 | CC[C@@]1(O)C(=O)OCc2c1cc1n(c2=O)Cc2c-1nc1cc(F)c(C3CC3)c3c1c2[C@@H](NC(=O)[C@H](O)C1CC1)CCC3 [Compound 33-1, (R)-2-cyclopropyl-N-((1S,10S)-5-cyclopropyl-10-ethyl-6-fluoro-10-hydroxy-11,14-dioxo-1,2,3,4,10,11,14,16-octahydro-13H-cyclohepta[3′,4′:6,7]indolizino[1,2-b]quinolin-1-yl)-2-hydroxyacetamide] | – | – | 6 nM | 8 nM | –
6 | CC[C@@]1(O)C(=O)OCc2c1cc1n(c2=O)Cc2c-1nc1cc(F)c(C3CC3)c3c1c2[C@@H](NC(=O)[C@@H](O)C1CC1)CCC3 [Compound 33-2, (S)-2-cyclopropyl-N-((1S,10S)-5-cyclopropyl-10-ethyl-6-fluoro-10-hydroxy-11,14-dioxo-1,2,3,4,10,11,14,16-octahydro-13H-cyclohepta[3′,4′:6,7]indolizino[1,2-b]quinolin-1-yl)-2-hydroxyacetamide] | – | – | 5 nM | 9 nM | –
7 | CC[C@@]1(O)C(=O)OCc2c1cc1n(c2=O)Cc2c-1nc1cc(F)c(C3CC3)c3c1c2[C@@H](NC(=O)C[C@H](O)C1CC1)CC3 [Compound 34-1, (S)-3-cyclopropyl-N-((1S,9S)-4-cyclopropyl-9-ethyl-5-fluoro-9-hydroxy-10,13-dioxo-2,3,9,10,13,15-hexahydro-1H,12H-benzo[d]pyrano[3′,4′:6,7]indolizino[1,2-b]quinolin-1-yl)-3-hydroxypropanamide] | – | – | 4 nM | 6 nM | –
8 | (S)—N-((1S,10S)-10-ethyl-6-fluoro-10-hydroxy-5-methyl-11,14-dioxo-1,2,3,4,10,11,14,16-octahydro-13H-cyclohepta[3′,4′:6,7]indolizino[1,2-b]quinolin-1-yl)-3-hydroxy-4-methylpentanamide [Compound 37-1] | – | – | 19 nM | – | –
